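How tested: cells in 96-well plates exposed to compound for 48 hours at five concentrations. The concentration for 50% growth inhibition is given as GI50.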 Calls of active or inactive are those of the source. Cut-off read from the data, not from the text of the source: active = GI50 up to about 1.1 µM and inactive = higher.
Key:
Test in all cases: NCI tumour cell line growth inhibition, 48 h
Hs-578T = system: Hs-578T
IGROV-1 = system: IGROV-1
EKVX = system: EKVX
UACC-257 = system: UACC-257
HCT-116 = system: HCT-116
PC-3 = system: PC-3
SK-MEL-5 = system: SK-MEL-5
BT-549 = system: BT-549
OVCAR-3 = system: OVCAR-3
MDA-MB-435 = system: MDA-MB-435
NCI-H23 = system: NCI-H23
TK-10 = system: TK-10
M14 = system: M14
HOP-92 = system: HOP-92
HOP-62 = system: HOP-62
ACHN = system: ACHN
786-0 = system: 786-0
T47D = system: T47D
SW-620 = system: SW-620
SNB-75 = system: SNB-75

Measured: GI50

Cn1c(=O)c2c(O)cc(N)nc2n(C)c1=O
inactive: Hs-578T > 100 µM | IGROV-1 > 100 µM | EKVX > 100 µM | UACC-257 > 100 µM | HCT-116 > 100 µM | PC-3 > 100 µM | SK-MEL-5 > 100 µM | BT-549 > 100 µM | OVCAR-3 > 100 µM | MDA-MB-435 > 100 µM | NCI-H23 > 100 µM | TK-10 > 100 µM | M14 > 100 µM | HOP-92 67.3 µM | HOP-62 > 100 µM | ACHN > 100 µM | 786-0 > 100 µM | T47D > 100 µM | SW-620 > 100 µM | SNB-75 > 100 µM

COc1ccccc1C1ON=C(c2ccc([N+](=O)[O-])cc2)N1C12CC3CC(CC(C3)C1)C2 (stereo not given)
inactive: Hs-578T 37.9 µM | IGROV-1 > 100 µM | EKVX > 100 µM | UACC-257 > 100 µM | HCT-116 47.5 µM | PC-3 33 µM | SK-MEL-5 59.6 µM | BT-549 > 100 µM | OVCAR-3 > 100 µM | MDA-MB-435 96.4 µM | NCI-H23 > 100 µM | TK-10 > 100 µM | M14 84.3 µM | HOP-92 29.2 µM | HOP-62 20.4 µM | ACHN > 100 µM | 786-0 > 100 µM | T47D 14 µM | SW-620 > 100 µM | SNB-75 42.1 µM

CN(C)CCCNC(=O)c1cc(NS(=O)(=O)c2ccc3c(c2)C(=O)c2ccccc2C3=O)cn1C
inactive: Hs-578T 76.4 µM | IGROV-1 33 µM | EKVX > 100 µM | UACC-257 19.2 µM | HCT-116 51.3 µM | PC-3 33.3 µM | SK-MEL-5 13.1 µM | BT-549 24.5 µM | OVCAR-3 13.5 µM | MDA-MB-435 25.4 µM | NCI-H23 24.1 µM | TK-10 25.2 µM | M14 22.3 µM | HOP-92 32.1 µM | HOP-62 37.8 µM | ACHN 14.6 µM | 786-0 28.7 µM | T47D 35.2 µM | SW-620 46.3 µM | SNB-75 30.8 µM

Nc1nc(Cl)c(N)c(NCC2(CO)CCC2)n1
inactive: Hs-578T > 100 µM | IGROV-1 > 100 µM | EKVX > 100 µM | UACC-257 > 100 µM | HCT-116 > 100 µM | PC-3 > 100 µM | SK-MEL-5 75.9 µM | BT-549 > 100 µM | OVCAR-3 > 100 µM | MDA-MB-435 > 100 µM | NCI-H23 94.2 µM | TK-10 > 100 µM | M14 > 100 µM | HOP-92 76 µM | HOP-62 > 100 µM | ACHN > 100 µM | 786-0 > 100 µM | T47D 91.8 µM | SW-620 > 100 µM | SNB-75 > 100 µM

C[N+](C)(C)c1ccc(C(N)C(=O)O)cc1 (stereo not given)
inactive: Hs-578T > 100 µM | IGROV-1 > 100 µM | EKVX > 100 µM | UACC-257 > 100 µM | HCT-116 > 100 µM | PC-3 > 100 µM | SK-MEL-5 > 100 µM | BT-549 > 100 µM | OVCAR-3 > 100 µM | MDA-MB-435 > 100 µM | NCI-H23 > 100 µM | TK-10 > 100 µM | M14 > 100 µM | HOP-92 > 100 µM | HOP-62 > 100 µM | ACHN > 100 µM | 786-0 > 100 µM | T47D > 100 µM | SW-620 > 100 µM | SNB-75 > 100 µM

Oc1ccc(Br)cc1/C=N/c1cccc(C(F)(F)F)c1
inactive: Hs-578T 28 µM | IGROV-1 6.24 µM | EKVX 27.1 µM | UACC-257 35.6 µM | HCT-116 9.12 µM | PC-3 7.16 µM | SK-MEL-5 28.3 µM | BT-549 22.3 µM | OVCAR-3 37 µM | MDA-MB-435 30.5 µM | NCI-H23 37.2 µM | TK-10 > 100 µM | M14 17.5 µM | HOP-92 35.2 µM | HOP-62 49.5 µM | ACHN > 100 µM | 786-0 30.4 µM | T47D 19.9 µM | SW-620 24 µM | SNB-75 42.6 µM
